The text below walks through data of article PMC11601876, “Manganese-based type I collagen-targeting MRI probe for in vivo imaging of liver fibrosis” (Research Square, 2024).

The nature of data set [1]: Kinetic inertness: Mn2+ dissociation upon Zn2+ challenge. The following applies: 0.5 mM Mn2+ (0.167 mM Mn-CBP20), 10 mM Zn(OTf)2, pH 7.4 50 mM Tris/18 mM citrate, 27 °C, monitored by r2 change at 1.4T. In kind it is physicochemical. As to the method: Figure 2. In vitro assays for collagen binding and kinetic inertness.
To assess kinetic inertness to Mn^2+ release, we evaluated Mn^2+ dissociation kinetics upon challenge of 0.167 mM Mn-CBP20 (0.5 mM Mn^2+) with 10 mM Zn(OTf)2 in the presence of pH 7.4 50 mM Tris/ 18 mM citrate buffer, Figure 2B. The presence of a weak chelator such as citrate is required to maintain homogenous reaction conditions during the course of the measurement, as treatment of Mn-CBP20 with even 1 mol equiv. […] Mn^2+ dissociation was monitored by observing change in r2. Under this set of assay conditions, the r2 value associated with dissociated Mn^2+ (16.3 mM^−1s^−1) is approximately half that of Mn^2+ bound within Mn-CBP20. As positive control, we monitored Mn^2+ dissociation from the kinetically inert complex Mn-CDTA (r2 = 5.9 mM^−1s^−1).

The conditions of data set [2]: rats; in words; cited from earlier work. The text has this:
Whole body PET-CT images recorded 1 and 7 days after [^52Mn]Mn-CBP20 injection are shown in Figure 6A and ex vivo ^52Mn biodistribution data are shown in Figure 6B and 6C and also tabulated in Supplementary Tables 1 and 2. The highest concentration of ^52Mn 1 day after injection is found in the kidneys, consistent with the expected renal elimination of the compound.

Regarding `O=C([O-])CN(CC(=O)[O-])C1CCCCC1N(CC(=O)[O-])CC(=O)[O-].[Mn+2]` (centres unmarked) [Mn-CDTA], in data set [1], the “half-life (t1/2) of Mn2+ dissociation” value came to 15.5 h.

For Mn-DPDP, the “52Mn uptake in salivary glands relative to other tissues” value in data set [2] was “high and persistent ^52Mn uptake in the salivary glands relative to other tissues”.
